Literature values in patent publication EP0974361A1, “METHOD OF USING ANTACID AGENT AND PHARMACEUTICAL PREPARATION CONTAINING ANTACID AGENT” (CHUGAI SEIYAKU KABUSHIKI KAISHA, priority 1996, dated 1997).
Read-outs that look alike come from different tables or passages of the source. Each block holds one molecule with its values, some of them ahead of it.

AUC (simultaneous administration of sucralfate (Yoshida et al.)): drop
Structure (SMILES): CN/C(=N/CCSCc1nc[nH]c1C)NC#N [cimetidine]

drop in adsorption (used along with sucralfate (Giesing et al.)): 19%
Structure (SMILES): C[C@H]1O[C@@H](O[C@H]2[C@@H](O)C[C@H](O[C@H]3[C@@H](O)C[C@H](O[C@H]4CC[C@@]5(C)[C@H](CC[C@@H]6[C@@H]5C[C@@H](O)[C@]5(C)[C@@H](C7=CC(=O)OC7)CC[C@]65O)C4)O[C@@H]3C)O[C@@H]2C)C[C@H](O)[C@@H]1O [digoxin]

Structure (SMILES): CC(C)Cc1ccc(C(C)C(=O)O)cc1 (centres unmarked) [ibuprofen]
absorption (used along with sucralfate (Anaya et al.)): reduced and retarded

Structure (SMILES): CC(=O)N1CCN(c2ccc(OCC3COC(Cn4ccnc4)(c4ccc(Cl)cc4Cl)O3)cc2)CC1 (centres unmarked) [ketoconazole]
bioavailability dropped by (used along with sucralfate (Goss et al.; Maconochie et al.)): 21%

bioavailability dropped by (in vivo): 29%
Structure (SMILES): CNC(=C[N+](=O)[O-])NCCSCc1ccc(CN(C)C)o1 [ranitidine]
